Legend:
[1] = system: Erysiphe graminis f. sp. tritici; assay: Test A: wheat powdery mildew, test suspension sprayed on wheat seedlings, disease rating; format: in vivo; details: 200 ppm test suspension, 100 = 100% disease control, 0 = no control; for pest or weed control at 200 ppm: Blumeria graminis, 192 h
Septoria nodorum = assay: Test D: wheat glume blotch, test suspension sprayed on wheat seedlings, disease rating; format: in vivo; details: 200 ppm test suspension; for pest or weed control at 200 ppm: Parastagonospora nodorum, 216 h
Septoria tritici = assay: Test E: wheat leaf blotch, test suspension sprayed on wheat seedlings, disease rating; format: in vivo; details: 200 ppm test suspension; for pest or weed control at 200 ppm: Zymoseptoria tritici, 504 h;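 for all read-outs here: 200 ppm unless marked * meaning 40 ppm or ** meaning 10 ppm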
Phytophthora infestans = assay: whole plant or invertebrate; format: in vivo; details: for pest or weed control at 200 ppm: Phytophthora infestans, in Solanum lycopersicum, 120 h, read-out: Test J disease control rating; for Test J disease control rating: 200 ppm test suspension
Pythium aphanidermatum = assay: Test L: bluegrass pythium blight, test suspension sprayed on bluegrass seedlings, disease rating; format: in vivo; details: 200 ppm test suspension; for pest or weed control at 200 ppm: Pythium aphanidermatum, 120 h;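 for all read-outs here: 200 ppm unless marked * meaning 40 ppm or ** meaning 10 ppm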
[2] = system: Puccinia recondite f sp. tritici; assay: Test B: wheat leaf rust, test suspension sprayed on wheat seedlings, disease rating; format: in vivo; details: 200 ppm test suspension;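 note: 200 ppm unless marked * meaning 40 ppm or ** meaning 10 ppm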
Fusarium graminearum = assay: whole plant or invertebrate; format: in vivo; details: for Test C disease control rating: 200 ppm test suspension
[3] = system: Colletotrichum orbiculare; assay: Test F: cucumber Colletotrichum anthracnose, test suspension sprayed on cucumber seedlings, disease rating; format: in vivo; details: 200 ppm test suspension
Botrytis cinerea = assay: Test H: tomato Botrytis, test suspension sprayed on tomato seedlings, disease rating; format: in vivo; details: 200 ppm test suspension
Rhizoctonia oryzae = assay: Test I: turf brown patch, test suspension sprayed on creeping bent grass seedlings, disease rating; format: in vivo; details: 200 ppm test suspension
Plasmopara viticola = assay: Test K: grape downy mildew, grape seedlings inoculated and then sprayed, disease rating; format: in vivo; details: 200 ppm test suspension

SMILES: Fc1ccc(-c2nn3c(c2-c2ccnc(Cl)n2)CCCN3)cc1
- melting point: 206 to 207 °C

SMILES: Fc1ccc(-c2nn3c(c2-c2ccnc(NCC4CC4)n2)CCCC3)cc1 [Compound 24, N-(cyclopropylmethyl)-4-[2-(4-fluorophenyl)-4,5,6,7-tetrahydropyrazolo[1,5-a]pyridin-3-yl]-2-pyrimidinamine]
- pest or weed control at 200 ppm [1]: 97%
- pest or weed control at 200 ppm (Septoria nodorum): 98%
- pest or weed control at 200 ppm (Septoria tritici): 98%
- pest or weed control at 200 ppm (Phytophthora infestans): 72%
- pest or weed control at 200 ppm (Pythium aphanidermatum): 0%
- melting point: 124 to 125 °C

SMILES: Fc1ccc(-c2nn3c(c2-c2ccnc(NC4CCC4)n2)CCCC3)cc1 [Compound 51, N-cyclobutyl-4-[2-(4-fluorophenyl)-4,5,6,7-tetrahydropyrazolo[1,5-a]pyridin-3-yl]-2-pyrimidinamine]
- pest or weed control at 200 ppm [1]: 81%
- pest or weed control at 200 ppm ([2]; Puccinia, 192 h): 98%
- pest or weed control at 200 ppm (Fusarium graminearum; Fusarium graminearum, in Triticum aestivum, 192 h, read-out: Test C disease control rating): 100%
- pest or weed control at 200 ppm (Septoria nodorum): 100%
- pest or weed control at 200 ppm (Septoria tritici): 100%
- pest or weed control at 200 ppm (Phytophthora infestans): 93%
- pest or weed control at 200 ppm (Pythium aphanidermatum): 100%
- melting point: 155 to 157 °C

SMILES: CC(C)(C)CNc1nccc(-c2c(-c3ccc(F)cc3)nn3c2CCCC3)n1 [compound 3]
- Test A disease control rating [1]: 47%
- Test B disease control rating [2]: 91%
- Test C disease control rating (Fusarium graminearum): 99%
- Test D disease control rating (Septoria nodorum): 0%
- Test E disease control rating (Septoria tritici): 72%
- Test F disease control rating [3]: 0%
- Test H disease control rating (Botrytis cinerea): 0%
- Test I disease control rating (Rhizoctonia oryzae): 0%
- Test J disease control rating (Phytophthora infestans): 0%
- Test K disease control rating (Plasmopara viticola): 0%
- Test L disease control rating (Pythium aphanidermatum): 0%

SMILES: CCCC(C)Nc1nccc(-c2c(-c3ccc(F)cc3)nn3c2CCCC3)n1 (centres unmarked) [compound 4]
- Test A disease control rating [1]: 0%
- Test B disease control rating [2]: 92%
- Test C disease control rating (Fusarium graminearum): 100%
- Test D disease control rating (Septoria nodorum): 60%
- Test E disease control rating (Septoria tritici): 90%
- Test F disease control rating [3]: 8%
- Test H disease control rating (Botrytis cinerea): 55%
- Test I disease control rating (Rhizoctonia oryzae): 0%
- Test J disease control rating (Phytophthora infestans): 0%
- Test K disease control rating (Plasmopara viticola): 21%
- Test L disease control rating (Pythium aphanidermatum): 0%

SMILES: Fc1ccc(-c2nn3c(c2-c2ccnc(NC4CCCC4)n2)CCCC3)cc1 [compound 7]
- Test A disease control rating [1]: 82%
- Test B disease control rating [2]: 99%
- Test C disease control rating (Fusarium graminearum): 100%
- Test D disease control rating (Septoria nodorum): 98%
- Test E disease control rating (Septoria tritici): 99%
- Test F disease control rating [3]: 90%
- Test H disease control rating (Botrytis cinerea): 82%
- Test I disease control rating (Rhizoctonia oryzae): 0%
- Test J disease control rating (Phytophthora infestans): 93%
- Test K disease control rating (Plasmopara viticola): 0%
- Test L disease control rating (Pythium aphanidermatum): 0%

SMILES: CCC(C)c1ccc(Nc2nccc(-c3c(-c4ccc(F)cc4)nn4c3CCCC4)n2)cc1 (centres unmarked) [compound 9]
- Test A disease control rating [1]: 52%
- Test B disease control rating [2]: 97%
- Test C disease control rating (Fusarium graminearum): 99%
- Test D disease control rating (Septoria nodorum): 92%
- Test E disease control rating (Septoria tritici): 0%
- Test F disease control rating [3]: 79%
- Test H disease control rating (Botrytis cinerea): 81%
- Test I disease control rating (Rhizoctonia oryzae): 0%
- Test J disease control rating (Phytophthora infestans): 0%
- Test K disease control rating (Plasmopara viticola): 0%
- Test L disease control rating (Pythium aphanidermatum): 0%

SMILES: CCCNc1nccc(-c2c(-c3ccc(F)cc3)nn3c2CCCC3)n1 [compound 11]
- Test A disease control rating [1]: 93%
- Test B disease control rating [2]: 99%
- Test C disease control rating (Fusarium graminearum): 100%
- Test D disease control rating (Septoria nodorum): 99%
- Test E disease control rating (Septoria tritici): 98%
- Test F disease control rating [3]: 83%
- Test H disease control rating (Botrytis cinerea): 97%
- Test I disease control rating (Rhizoctonia oryzae): 44%
- Test J disease control rating (Phytophthora infestans): 100%
- Test K disease control rating (Plasmopara viticola): 0%
- Test L disease control rating (Pythium aphanidermatum): 100%

SMILES: CN(C)c1nccc(-c2c(-c3ccc(F)cc3)nn3c2CCCC3)n1 [compound 14]
- Test A disease control rating [1]: 95%
- Test B disease control rating [2]: 91%
- Test C disease control rating (Fusarium graminearum): 100%
- Test D disease control rating (Septoria nodorum): 73%
- Test E disease control rating (Septoria tritici): 99%
- Test F disease control rating [3]: 0%
- Test H disease control rating (Botrytis cinerea): 0%
- Test I disease control rating (Rhizoctonia oryzae): 0%
- Test J disease control rating (Phytophthora infestans): 60%
- Test K disease control rating (Plasmopara viticola): 0%
- Test L disease control rating (Pythium aphanidermatum): 0%

SMILES: CCNc1nccc(-c2c(-c3ccc(F)cc3)nn3c2CCCC3)n1 [compound 18]
- Test A disease control rating [1]: 96%
- Test B disease control rating [2]: 100%
- Test C disease control rating (Fusarium graminearum): 100%
- Test D disease control rating (Septoria nodorum): 97%
- Test F disease control rating [3]: 98%
- Test H disease control rating (Botrytis cinerea): 74%
- Test I disease control rating (Rhizoctonia oryzae): 0%
- Test J disease control rating (Phytophthora infestans): 99%
- Test K disease control rating (Plasmopara viticola): 0%
- Test L disease control rating (Pythium aphanidermatum): 100%

SMILES: CCC(C)Nc1nccc(-c2c(-c3ccc(F)cc3)nn3c2CCCC3)n1 (centres unmarked) [compound 19]
- Test A disease control rating [1]: 26%
- Test B disease control rating [2]: 99%
- Test C disease control rating (Fusarium graminearum): 100%
- Test D disease control rating (Septoria nodorum): 98%
- Test F disease control rating [3]: 66%
- Test H disease control rating (Botrytis cinerea): 74%
- Test I disease control rating (Rhizoctonia oryzae): 0%
- Test J disease control rating (Phytophthora infestans): 31%
- Test K disease control rating (Plasmopara viticola): 0%
- Test L disease control rating (Pythium aphanidermatum): 93%

SMILES: CCC(C)Nc1nccc(-c2c(-c3ccc(F)cc3)nn3c2CCCC3)n1 (centres unmarked) [compound 20]
- Test A disease control rating [1]: 78%
- Test B disease control rating [2]: 99%
- Test C disease control rating (Fusarium graminearum): 100%
- Test D disease control rating (Septoria nodorum): 99%
- Test F disease control rating [3]: 88%
- Test H disease control rating (Botrytis cinerea): 96%
- Test I disease control rating (Rhizoctonia oryzae): 0%
- Test J disease control rating (Phytophthora infestans): 99%
- Test K disease control rating (Plasmopara viticola): 0%
- Test L disease control rating (Pythium aphanidermatum): 100%

SMILES: COCC(C)Nc1nccc(-c2c(-c3ccc(F)cc3)nn3c2CCC3)n1 (centres unmarked) [compound 84]
- Test A disease control rating [1]: 60%
- Test B disease control rating [2]: 99%
- Test C disease control rating (Fusarium graminearum): 100%
- Test D disease control rating (Septoria nodorum): 99%
- Test F disease control rating [3]: 98%
- Test H disease control rating (Botrytis cinerea): 52%
- Test I disease control rating (Rhizoctonia oryzae): 16%
- Test J disease control rating (Phytophthora infestans): 93%
- Test K disease control rating (Plasmopara viticola): 0%
- Test L disease control rating (Pythium aphanidermatum): 100%

SMILES: CCC(C)Nc1nccc(-c2c(-c3ccc(F)cc3)nn3c2CCC3)n1 (centres unmarked) [compound 85]
- Test A disease control rating [1]: 0%
- Test B disease control rating [2]: 99%
- Test C disease control rating (Fusarium graminearum): 100%
- Test D disease control rating (Septoria nodorum): 82%
- Test F disease control rating [3]: 88%
- Test H disease control rating (Botrytis cinerea): 52%
- Test I disease control rating (Rhizoctonia oryzae): 16%
- Test J disease control rating (Phytophthora infestans): 67%
- Test K disease control rating (Plasmopara viticola): 0%
- Test L disease control rating (Pythium aphanidermatum): 100%

SMILES: CNc1nccc(-c2c(-c3ccc(F)cc3)nn3c2CCC3)n1 [compound 90]
- Test A disease control rating [1]: 96%
- Test B disease control rating [2]: 99%
- Test C disease control rating (Fusarium graminearum): 100%
- Test D disease control rating (Septoria nodorum): 100%
- Test F disease control rating [3]: 17%
- Test H disease control rating (Botrytis cinerea): 0%
- Test I disease control rating (Rhizoctonia oryzae): 0%
- Test J disease control rating (Phytophthora infestans): 99%
- Test K disease control rating (Plasmopara viticola): 0%
- Test L disease control rating (Pythium aphanidermatum): 97%

SMILES: CC(C)Nc1nccc(-c2c(-c3ccc(F)cc3)nn3c2CCC3)n1 [compound 91]
- Test A disease control rating [1]: 74%
- Test B disease control rating [2]: 99%
- Test C disease control rating (Fusarium graminearum): 100%
- Test D disease control rating (Septoria nodorum): 98%
- Test F disease control rating [3]: 16%
- Test H disease control rating (Botrytis cinerea): 99%
- Test I disease control rating (Rhizoctonia oryzae): 0%
- Test J disease control rating (Phytophthora infestans): 0%
- Test K disease control rating (Plasmopara viticola): 0%
- Test L disease control rating (Pythium aphanidermatum): 88%

SMILES: Fc1ccc(-c2nn3c(c2-c2ccnc(NC4CC4)n2)CCC3)cc1 [compound 92]
- Test A disease control rating [1]: 94%
- Test B disease control rating [2]: 99%
- Test C disease control rating (Fusarium graminearum): 100%
- Test D disease control rating (Septoria nodorum): 99%
- Test F disease control rating [3]: 80%
- Test H disease control rating (Botrytis cinerea): 90%
- Test I disease control rating (Rhizoctonia oryzae): 0%
- Test J disease control rating (Phytophthora infestans): 99%
- Test K disease control rating (Plasmopara viticola): 0%
- Test L disease control rating (Pythium aphanidermatum): 99%

SMILES: COc1ccc(-c2nn3c(c2-c2ccnc(NC4CC4)n2)CCC3)cc1 [compound 93]
- Test A disease control rating [1]: 0%
- Test B disease control rating [2]: 0%
- Test C disease control rating (Fusarium graminearum): 99%
- Test D disease control rating (Septoria nodorum): 0%
- Test F disease control rating [3]: 0%
- Test H disease control rating (Botrytis cinerea): 0%
- Test I disease control rating (Rhizoctonia oryzae): 0%
- Test J disease control rating (Phytophthora infestans): 95%
- Test K disease control rating (Plasmopara viticola): 0%
- Test L disease control rating (Pythium aphanidermatum): 90%

SMILES: Fc1ccc(-c2nn3c(c2-c2ccnc(NC4CC4)n2)CCC3)c(F)c1 [compound 94]
- Test A disease control rating [1]: 82%
- Test B disease control rating [2]: 97%
- Test C disease control rating (Fusarium graminearum): 100%
- Test D disease control rating (Septoria nodorum): 98%
- Test F disease control rating [3]: 24%
- Test H disease control rating (Botrytis cinerea): 96%
- Test I disease control rating (Rhizoctonia oryzae): 16%
- Test J disease control rating (Phytophthora infestans): 99%
- Test K disease control rating (Plasmopara viticola): 0%
- Test L disease control rating (Pythium aphanidermatum): 99%

SMILES: C=CCNc1nccc(-c2c(-c3ccc(F)cc3)nn3c2CCC3)n1 [compound 95]
- Test A disease control rating [1]: 68%
- Test B disease control rating [2]: 100%
- Test C disease control rating (Fusarium graminearum): 100%
- Test D disease control rating (Septoria nodorum): 99%
- Test F disease control rating [3]: 21%
- Test H disease control rating (Botrytis cinerea): 87%
- Test I disease control rating (Rhizoctonia oryzae): 0%
- Test J disease control rating (Phytophthora infestans): 99%
- Test K disease control rating (Plasmopara viticola): 0%
- Test L disease control rating (Pythium aphanidermatum): 95%

From patent US8288375B2, “Fungicidal bicyclic pyrazoles” (E.I. du Pont de Nemours and Company, priority 2007, dated 2012)
